Data as given in US11076594B2, “Pyrazolone compound or salt thereof, preparation method therefor, herbicide composition and use thereof” (QINGDAO KINGAGROOT CHEMICAL COMPOUNDS CO., LTD., priority 2015, dated 2021).

Experiments:
Assay type in all cases: in vivo
[1] = system: chickweed; assay: wheat field resistant broadleaf weed control, greenhouse spray at 4 leaf stage; design: key: Level 10: completely dead; Level 9: above 95% growth control rate; Level 8: above 90% growth control rate; Level 7: above 80% growth control rate; Level 6: above 70% growth control rate; Level 5: above 60% growth control rate; Level 4: above 50% growth control rate; Level 3: above 20% growth control rate; Level 2: 5%-20% growth control rate; Level 1: below 5% growth control rate; conditions: 250 g/ha of the active substance; 4 weeks after treatment; ALS inhibitor resistant
Experimental: (§1) The activity level standard of harmful plant destruction (i.e. growth control rate) is as follows:
(§2) The above described growth control rate is fresh weight control rate.
(§3) The seeds of alopecurus japonicas, flixweed, shepherd's purse, corn gromwell, chickweed, beckmannia syzigachne, and annual ryegrass and wheat seeds were put into a plastic pot loaded with soil, and then covered with 0.5-2 cm soil, the seeds were allowed to grow in good greenhouse environment. The test plants were treated at 4 leaf stage 2-3 weeks after sowing. The test compounds of the present invention were dissolved in acetone respectively, then added with methyl oleate emulsion and diluted by certain amount of water to certain concentration. The solution was sprayed to the plant with a sprayer. Then the plants were cultured for 4 weeks in greenhouse.

[2] = system: flixweed; assay: as above; design: key: Level 10: completely dead; Level 9: above 95% growth control rate; Level 8: above 90% growth control rate; Level 7: above 80% growth control rate; Level 6: above 70% growth control rate; Level 5: above 60% growth control rate; Level 4: above 50% growth control rate; Level 3: above 20% growth control rate; Level 2: 5%-20% growth control rate; Level 1: below 5% growth control rate; conditions: 250 g/ha of the active substance; 4 weeks after treatment; ALS inhibitor resistant
Experimental: as §1, §2, §3

[3] = system: corn gromwell; assay: as above; design: key: Level 10: completely dead; Level 9: above 95% growth control rate; Level 8: above 90% growth control rate; Level 7: above 80% growth control rate; Level 6: above 70% growth control rate; Level 5: above 60% growth control rate; Level 4: above 50% growth control rate; Level 3: above 20% growth control rate; Level 2: 5%-20% growth control rate; Level 1: below 5% growth control rate; conditions: 250 g/ha of the active substance; 4 weeks after treatment; ALS inhibitor resistant
Experimental: as §1, §2, §3

[4] = system: shepherd's purse; assay: as above; design: key: Level 10: completely dead; Level 9: above 95% growth control rate; Level 8: above 90% growth control rate; Level 7: above 80% growth control rate; Level 6: above 70% growth control rate; Level 5: above 60% growth control rate; Level 4: above 50% growth control rate; Level 3: above 20% growth control rate; Level 2: 5%-20% growth control rate; Level 1: below 5% growth control rate; conditions: 250 g/ha of the active substance; 4 weeks after treatment; ALS inhibitor resistant
Experimental: as §1, §2, §3

[5] = system: wheat; assay: wheat field test, crop selectivity, greenhouse spray at 4 leaf stage; conditions: 250 g/ha of the active substance; 4 weeks after treatment
How it was run: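 Seeds sown in soil-filled pots, covered 0.5-2 cm, greenhouse-grown; sprayed at 4 leaf stage (2-3 wk); acetone/methyl oleate emulsion/water formulation; 4 wk greenhouse; fresh wt control rate.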

[6] = system: echinochloa; assay: weed control effect in post-emergence stage (Table 1); design: key: Level 10: completely dead; Level 9: above 95% growth control rate; Level 8: above 90% growth control rate; Level 7: above 80% growth control rate; Level 6: above 70% growth control rate; Level 5: above 60% growth control rate; Level 4: above 50% growth control rate; Level 3: above 20% growth control rate; Level 2: 5%-20% growth control rate; Level 1: below 5% growth control rate; conditions: post-emergence spray at 4-5 leaf stage, 250 g/ha active ingredient with 450 kg/ha water, rated after 3 weeks in greenhouse
How it was run: (§4)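 Fresh-weight-based growth control rate was assessed 3 weeks after spraying. Test compound, dissolved in acetone, with tween 80 added and diluted in water, was sprayed onto greenhouse-grown, pot-cultured weeds and crop plants at 4-5 leaves, 2-3 weeks post-sowing.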

[7] = system: bidens bipinnata; assay: as above; design: key: Level 10: completely dead; Level 9: above 95% growth control rate; Level 8: above 90% growth control rate; Level 7: above 80% growth control rate; Level 6: above 70% growth control rate; Level 5: above 60% growth control rate; Level 4: above 50% growth control rate; Level 3: above 20% growth control rate; Level 2: 5%-20% growth control rate; Level 1: below 5% growth control rate; conditions: post-emergence spray at 4-5 leaf stage, 250 g/ha active ingredient with 450 kg/ha water, rated after 3 weeks in greenhouse
How it was run: as §4

[8] = system: rorippa indica; assay: as above; design: key: Level 10: completely dead; Level 9: above 95% growth control rate; Level 8: above 90% growth control rate; Level 7: above 80% growth control rate; Level 6: above 70% growth control rate; Level 5: above 60% growth control rate; Level 4: above 50% growth control rate; Level 3: above 20% growth control rate; Level 2: 5%-20% growth control rate; Level 1: below 5% growth control rate; conditions: post-emergence spray at 4-5 leaf stage, 250 g/ha active ingredient with 450 kg/ha water, rated after 3 weeks in greenhouse
How it was run: as §4

[9] = system: Indian mallow; assay: as above; design: key: Level 10: completely dead; Level 9: above 95% growth control rate; Level 8: above 90% growth control rate; Level 7: above 80% growth control rate; Level 6: above 70% growth control rate; Level 5: above 60% growth control rate; Level 4: above 50% growth control rate; Level 3: above 20% growth control rate; Level 2: 5%-20% growth control rate; Level 1: below 5% growth control rate; conditions: post-emergence spray at 4-5 leaf stage, 250 g/ha active ingredient with 450 kg/ha water, rated after 3 weeks in greenhouse
How it was run: as §4

[10] = system: foxtail; assay: as above; design: key: Level 10: completely dead; Level 9: above 95% growth control rate; Level 8: above 90% growth control rate; Level 7: above 80% growth control rate; Level 6: above 70% growth control rate; Level 5: above 60% growth control rate; Level 4: above 50% growth control rate; Level 3: above 20% growth control rate; Level 2: 5%-20% growth control rate; Level 1: below 5% growth control rate; conditions: post-emergence spray at 4-5 leaf stage, 250 g/ha active ingredient with 450 kg/ha water, rated after 3 weeks in greenhouse
How it was run: as §4

[11] = system: crab grass; assay: as above; design: key: Level 10: completely dead; Level 9: above 95% growth control rate; Level 8: above 90% growth control rate; Level 7: above 80% growth control rate; Level 6: above 70% growth control rate; Level 5: above 60% growth control rate; Level 4: above 50% growth control rate; Level 3: above 20% growth control rate; Level 2: 5%-20% growth control rate; Level 1: below 5% growth control rate; conditions: post-emergence spray at 4-5 leaf stage, 250 g/ha active ingredient with 450 kg/ha water, rated after 3 weeks in greenhouse
How it was run: as §4

[12] = system: wheat; assay: post-emergence stage experiment, crop (Table 1); conditions: post-emergence spray at 4-5 leaf stage, 250 g/ha active ingredient with 450 kg/ha water, rated after 3 weeks in greenhouse
How it was run: as §4

[13] = system: corn; assay: post-emergence stage experiment, crop (Table 1); conditions: post-emergence spray at 4-5 leaf stage, 250 g/ha active ingredient with 450 kg/ha water, rated after 3 weeks in greenhouse
How it was run: as §4

[14] = system: rice; assay: post-emergence stage experiment, crop (Table 1); design: key: Level 10: completely dead; Level 9: above 95% growth control rate; Level 8: above 90% growth control rate; Level 7: above 80% growth control rate; Level 6: above 70% growth control rate; Level 5: above 60% growth control rate; Level 4: above 50% growth control rate; Level 3: above 20% growth control rate; Level 2: 5%-20% growth control rate; Level 1: below 5% growth control rate; conditions: post-emergence spray at 4-5 leaf stage, 250 g/ha active ingredient with 450 kg/ha water, rated after 3 weeks in greenhouse
How it was run: as §4

effect on crop, Wheat (level) [12]	Structure (SMILES)	chickweed weed controlling effect (activity level) [1]	flixweed weed controlling effect (activity level) [2]	corn gromwell weed controlling effect (activity level) [3]	shepherd's purse weed controlling effect (activity level) [4]	Wheat (activity level, crop damage) [5]	weed control effect, Echinochloa (level) [6]	weed control effect, Bidens bipinnata (level) [7]	weed control effect, Rorippa indica (level) [8]	weed control effect, Indian mallow (level) [9]	weed control effect, Green foxtail (level) [10]	weed control effect, Crab grass (level) [11]	effect on crop, Corn (level) [13]	effect on crop, Rice (level) [14]
0	CCc1nn(C)c(O)c1C(=O)c1ccc(C(F)(F)F)c(-n2cc(C)cn2)c1Cl [Compound 140]	10	10	10	10	0	8 (Level 8: above 90% growth control rate)	8 (Level 8: above 90% growth control rate)	10	10	7 (Level 7: above 80% growth control rate)	1 (Level 1: below 5% growth control rate)	0	10
0	CCOc1c(C(=O)Oc2c(C(=O)c3ccc(C(F)(F)F)c(-n4cc(C)cn4)c3Cl)c(C)nn2C)cnn1C [Compound 086]	10	10	10	10	0	5 (Level 5: above 60% growth control rate)	6 (Level 6: above 70% growth control rate)	10	10	2 (Level 2: 5%-20% growth control rate)	4 (Level 4: above 50% growth control rate)	0	2 (Level 2: 5%-20% growth control rate)
0	Cc1cnn(-c2c(C(F)(F)F)ccc(C(=O)c3cnn(C)c3OC(=O)c3cn(C)nc3C)c2Cl)c1 [Compound 082]	10	10	10	10	0	10	4 (Level 4: above 50% growth control rate)	10	9 (Level 9: above 95% growth control rate)	10	6 (Level 6: above 70% growth control rate)	3 (Level 3: above 20% growth control rate)	3 (Level 3: above 20% growth control rate)

Further lines, the compound ahead of its results:

Structure (SMILES)	effect on crop, Wheat (level) [12]	chickweed weed controlling effect (activity level) [1]	flixweed weed controlling effect (activity level) [2]	corn gromwell weed controlling effect (activity level) [3]	shepherd's purse weed controlling effect (activity level) [4]	Wheat (activity level, crop damage) [5]	weed control effect, Echinochloa (level) [6]	weed control effect, Bidens bipinnata (level) [7]	weed control effect, Rorippa indica (level) [8]	weed control effect, Indian mallow (level) [9]	weed control effect, Green foxtail (level) [10]	weed control effect, Crab grass (level) [11]	effect on crop, Corn (level) [13]	effect on crop, Rice (level) [14]
Cn1cc(C(=O)Oc2c(C(=O)c3ccc(C(F)(F)F)c(N4CCCCCC4=O)c3Cl)c(C3CC3)nn2C)cn1 [Compound 061]	0	10	10	10	10	0	5 (Level 5: above 60% growth control rate)	7 (Level 7: above 80% growth control rate)	10	10	1 (Level 1: below 5% growth control rate)	4 (Level 4: above 50% growth control rate)	1 (Level 1: below 5% growth control rate)	1 (Level 1: below 5% growth control rate)
CCc1nn(C)c(OC(=O)c2cn(C)nc2C)c1C(=O)c1ccc(C(F)(F)F)c(-n2cccn2)c1Cl [Compound 131]	0	10	10	10	10	0	10	10	10	10	10	3 (Level 3: above 20% growth control rate)	4 (Level 4: above 50% growth control rate)	10
CCn1nc(C)c(C(=O)c2ccc(C(F)(F)F)c(-n3cc(C)cn3)c2Cl)c1O [Compound 138]	1 (Level 1: below 5% growth control rate)	10	10	10	10	1 (Level 1: below 5% growth control rate)	10	5 (Level 5: above 60% growth control rate)	10	0	10	5 (Level 5: above 60% growth control rate)	2 (Level 2: 5%-20% growth control rate)	7 (Level 7: above 80% growth control rate)
